Test results from PubChem BioAssay (NCI).
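Cells were grown in 96-well plates and exposed to each compound for 48 hours at five concentrations; endpoints were interpolated linearly between bracketing concentrations, or set to the highest concentration if not reached. GI50 = concentration required for 50% inhibition of growth. TGI is the concentration that stops growth completely.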

Columns and labels:
Test in all cases: DTP human tumour cell line panel, 48 h
RXF 393 renal = tested on: RXF 393 renal
COLO 205 colon = tested on: COLO 205 colon
BT-549 breast = tested on: BT-549 breast
M14 melanoma = tested on: M14 melanoma
HS 578T breast = tested on: HS 578T breast
MCF7 breast = tested on: MCF7 breast
HCC-2998 colon = tested on: HCC-2998 colon
SW-620 colon = tested on: SW-620 colon
TK-10 renal = tested on: TK-10 renal
SF-539 CNS = tested on: SF-539 CNS
ACHN renal = tested on: ACHN renal
SNB-19 CNS = tested on: SNB-19 CNS
SF-268 CNS = tested on: SF-268 CNS
SNB-75 CNS = tested on: SNB-75 CNS
A498 renal = tested on: A498 renal
PC-3 prostate = tested on: PC-3 prostate
HL-60(TB) leukemia = tested on: HL-60(TB) leukemia
NCI-H460 lung = tested on: NCI-H460 lung
OVCAR-5 ovarian = tested on: OVCAR-5 ovarian
SF-295 CNS = tested on: SF-295 CNS
RPMI-8226 leukemia = tested on: RPMI-8226 leukemia
CAKI-1 renal = tested on: CAKI-1 renal
MDA-MB-231 breast = tested on: MDA-MB-231 breast
UACC-257 melanoma = tested on: UACC-257 melanoma
UACC-62 melanoma = tested on: UACC-62 melanoma
T-47D breast = tested on: T-47D breast
CCRF-CEM leukemia = tested on: CCRF-CEM leukemia
NCI-H23 lung = tested on: NCI-H23 lung
SK-MEL-28 melanoma = tested on: SK-MEL-28 melanoma
HCT-116 colon = tested on: HCT-116 colon
NCI-H226 lung = tested on: NCI-H226 lung
786-0 renal = tested on: 786-0 renal
LOX IMVI melanoma = tested on: LOX IMVI melanoma
EKVX NSCLC = tested on: EKVX NSCLC
OVCAR-4 ovarian = tested on: OVCAR-4 ovarian
OVCAR-3 ovarian = tested on: OVCAR-3 ovarian
SK-MEL-5 melanoma = tested on: SK-MEL-5 melanoma
HT29 colon = tested on: HT29 colon
MDA-MB-435 = tested on: MDA-MB-435
SK-MEL-2 melanoma = tested on: SK-MEL-2 melanoma
A549 NSCLC = tested on: A549 NSCLC
SK-OV-3 ovarian = tested on: SK-OV-3 ovarian
HOP-62 NSCLC = tested on: HOP-62 NSCLC
NCI-H522 lung = tested on: NCI-H522 lung
KM12 colon = tested on: KM12 colon
K-562 leukemia = tested on: K-562 leukemia
MOLT-4 leukemia = tested on: MOLT-4 leukemia
SN12C renal = tested on: SN12C renal
DU-145 prostate = tested on: DU-145 prostate
NCI/ADR-RES ovarian = tested on: NCI/ADR-RES ovarian
IGROV1 ovarian = tested on: IGROV1 ovarian
OVCAR-8 ovarian = tested on: OVCAR-8 ovarian
U251 CNS = tested on: U251 CNS
UO-31 renal = tested on: UO-31 renal
HCT-15 colon = tested on: HCT-15 colon
HOP-92 NSCLC = tested on: HOP-92 NSCLC
MALME-3M melanoma = tested on: MALME-3M melanoma

## CCCCCCCC/C=C/CCCCCCCC1=NC(C)(C)CN1C(C)(C)CO
RXF 393 renal
  GI50: 2.17 µM
  TGI: 3.99 µM
COLO 205 colon
  GI50: 1.88 µM
  TGI: 3.42 µM
BT-549 breast
  GI50: 11.3 µM
  TGI: 24.1 µM
M14 melanoma
  GI50: 1.78 µM
  TGI: 3.22 µM
HS 578T breast
  GI50: 1.84 µM
  TGI: 3.9 µM
MCF7 breast
  GI50: 1.82 µM
  TGI: 3.43 µM
HCC-2998 colon
  GI50: 1.65 µM
  TGI: 3.04 µM
SW-620 colon
  GI50: 1.63 µM
  TGI: 3.11 µM
TK-10 renal
  GI50: 2.61 µM
  TGI: 7.46 µM
SF-539 CNS
  GI50: 1.68 µM
  TGI: 3.34 µM
ACHN renal
  GI50: 1.81 µM
  TGI: 3.52 µM
SNB-19 CNS
  GI50: 2.39 µM
  TGI: 6.55 µM
SF-268 CNS
  GI50: 2.01 µM
  TGI: 3.84 µM
SNB-75 CNS
  GI50: 1.89 µM
  TGI: 5.77 µM
A498 renal
  GI50: 11.5 µM
  TGI: 25.7 µM
PC-3 prostate
  GI50: 1.83 µM
  TGI: 4.92 µM
HL-60(TB) leukemia
  GI50: 2.23 µM
  TGI: 5.5 µM
NCI-H460 lung
  GI50: 1.81 µM
  TGI: 3.31 µM
OVCAR-5 ovarian
  GI50: 2.15 µM
  TGI: 5.09 µM
SF-295 CNS
  GI50: 1.81 µM
  TGI: 3.52 µM
RPMI-8226 leukemia
  GI50: 2.55 µM
  TGI: 5.68 µM
CAKI-1 renal
  GI50: 1.39 µM
  TGI: 2.88 µM
MDA-MB-231 breast
  GI50: 1.6 µM
  TGI: 3.77 µM
UACC-257 melanoma
  GI50: 1.76 µM
  TGI: 3.54 µM
UACC-62 melanoma
  GI50: 1.82 µM
  TGI: 3.47 µM
T-47D breast
  GI50: 3.39 µM
  TGI: 11.8 µM
CCRF-CEM leukemia
  GI50: 3.04 µM
  TGI: 11.4 µM
NCI-H23 lung
  GI50: 1.77 µM
  TGI: 3.46 µM
SK-MEL-28 melanoma
  GI50: 1.79 µM
  TGI: 3.18 µM
HCT-116 colon
  GI50: 1.52 µM
  TGI: 2.9 µM
NCI-H226 lung
  GI50: 2.87 µM
  TGI: 7.61 µM
786-0 renal
  GI50: 1.64 µM
  TGI: 3.12 µM
LOX IMVI melanoma
  GI50: 1.61 µM
  TGI: 2.98 µM
EKVX NSCLC
  GI50: 1.53 µM
  TGI: 4.36 µM
OVCAR-4 ovarian
  GI50: 2.12 µM
  TGI: 4.4 µM
OVCAR-3 ovarian
  GI50: 1.74 µM
  TGI: 3.13 µM
SK-MEL-5 melanoma
  GI50: 1.75 µM
  TGI: 3.13 µM
HT29 colon
  GI50: 1.45 µM
  TGI: 3.38 µM
MDA-MB-435
  GI50: 1.72 µM
  TGI: 3.26 µM
SK-MEL-2 melanoma
  GI50: 1.76 µM
  TGI: 3.67 µM
A549 NSCLC
  GI50: 1.87 µM
  TGI: 3.82 µM
SK-OV-3 ovarian
  GI50: 14.4 µM
  TGI: 29.3 µM
HOP-62 NSCLC
  GI50: 1.76 µM
  TGI: 3.28 µM
NCI-H522 lung
  GI50: 1.83 µM
  TGI: 3.7 µM
KM12 colon
  GI50: 1.97 µM
  TGI: 3.45 µM
K-562 leukemia
  GI50: 2.12 µM
  TGI: 5.48 µM
MOLT-4 leukemia
  GI50: 2.62 µM
  TGI: 5.81 µM
SN12C renal
  GI50: 2.25 µM
  TGI: 6.67 µM
DU-145 prostate
  GI50: 1.86 µM
  TGI: 3.32 µM
NCI/ADR-RES ovarian
  GI50: 2.1 µM
  TGI: 4.81 µM

## CC(C)C[C@@H](N)[C@@H](O)C(=O)N[C@H](C(=O)N[C@H](C(=O)N[C@@H](CC(=O)O)C(=O)O)C(C)C)C(C)C
COLO 205 colon
  GI50: > 20 µM
  TGI: > 20 µM
BT-549 breast
  GI50: > 20 µM
  TGI: > 20 µM
M14 melanoma
  GI50: > 20 µM
  TGI: > 20 µM
HS 578T breast
  GI50: > 20 µM
  TGI: > 20 µM
MCF7 breast
  GI50: > 20 µM
  TGI: > 20 µM
HCC-2998 colon
  GI50: > 20 µM
  TGI: > 20 µM
SW-620 colon
  GI50: > 20 µM
  TGI: > 20 µM
TK-10 renal
  GI50: > 20 µM
  TGI: > 20 µM
SF-539 CNS
  GI50: > 20 µM
  TGI: > 20 µM
IGROV1 ovarian
  GI50: > 20 µM
  TGI: > 20 µM
ACHN renal
  GI50: > 20 µM
  TGI: > 20 µM
SNB-19 CNS
  GI50: > 20 µM
  TGI: > 20 µM
SF-268 CNS
  GI50: > 20 µM
  TGI: > 20 µM
OVCAR-8 ovarian
  GI50: > 20 µM
  TGI: > 20 µM
U251 CNS
  GI50: > 20 µM
  TGI: > 20 µM
SNB-75 CNS
  GI50: > 20 µM
  TGI: > 20 µM
A498 renal
  GI50: > 20 µM
  TGI: > 20 µM
PC-3 prostate
  GI50: > 20 µM
  TGI: > 20 µM
UO-31 renal
  GI50: > 20 µM
  TGI: > 20 µM
NCI-H460 lung
  GI50: > 20 µM
  TGI: > 20 µM
OVCAR-5 ovarian
  GI50: > 20 µM
  TGI: > 20 µM
HCT-15 colon
  GI50: > 20 µM
  TGI: > 20 µM
SF-295 CNS
  GI50: > 20 µM
  TGI: > 20 µM
CAKI-1 renal
  GI50: > 20 µM
  TGI: > 20 µM
MDA-MB-231 breast
  GI50: > 20 µM
  TGI: > 20 µM
UACC-257 melanoma
  GI50: > 20 µM
  TGI: > 20 µM
UACC-62 melanoma
  GI50: > 20 µM
  TGI: > 20 µM
T-47D breast
  GI50: > 20 µM
  TGI: > 20 µM
CCRF-CEM leukemia
  GI50: > 20 µM
  TGI: > 20 µM
NCI-H23 lung
  GI50: > 20 µM
  TGI: > 20 µM
SK-MEL-28 melanoma
  GI50: > 20 µM
  TGI: > 20 µM
HCT-116 colon
  GI50: > 20 µM
  TGI: > 20 µM
NCI-H226 lung
  GI50: > 20 µM
  TGI: > 20 µM
786-0 renal
  GI50: > 20 µM
  TGI: > 20 µM
LOX IMVI melanoma
  GI50: > 20 µM
  TGI: > 20 µM
EKVX NSCLC
  GI50: > 20 µM
  TGI: > 20 µM
OVCAR-4 ovarian
  GI50: > 20 µM
  TGI: > 20 µM
OVCAR-3 ovarian
  GI50: > 20 µM
  TGI: > 20 µM
SK-MEL-5 melanoma
  GI50: > 20 µM
  TGI: > 20 µM
HT29 colon
  GI50: > 20 µM
  TGI: > 20 µM
MDA-MB-435
  GI50: > 20 µM
  TGI: > 20 µM
HOP-92 NSCLC
  GI50: 10.3 µM
  TGI: > 20 µM
SK-MEL-2 melanoma
  GI50: > 20 µM
  TGI: > 20 µM
A549 NSCLC
  GI50: > 20 µM
  TGI: > 20 µM
SK-OV-3 ovarian
  GI50: > 20 µM
  TGI: > 20 µM
HOP-62 NSCLC
  GI50: > 20 µM
  TGI: > 20 µM
NCI-H522 lung
  GI50: > 20 µM
  TGI: > 20 µM
KM12 colon
  GI50: > 20 µM
  TGI: > 20 µM
K-562 leukemia
  GI50: > 20 µM
  TGI: > 20 µM
MALME-3M melanoma
  GI50: > 20 µM
  TGI: > 20 µM
MOLT-4 leukemia
  GI50: > 20 µM
  TGI: > 20 µM
SN12C renal
  GI50: > 20 µM
  TGI: > 20 µM
DU-145 prostate
  GI50: > 20 µM
  TGI: > 20 µM
NCI/ADR-RES ovarian
  GI50: > 20 µM
  TGI: > 20 µM
